Where two headings read alike, the source gives them in different places.
Biological target: USP7 (Homo sapiens (Human), UniProt Q93009)
Assay: USP7 fluorescence polarisation (FP) assay with ubiquitin-Lys-TAMRA substrate
Type: biochemical
Settings: biochemical inhibition
Method: USP7 activity was monitored in a fluorescence polarisation (FP) homogeneous assay using the isopeptide ubiquitin-Lys-TAMRA substrate (U-558, Boston Biochem). Full-length USP7 was purchased from Boston Biochem (His6-USP7FL, E-519). Unless otherwise stated, all other reagents were purchased from Sigma-Aldrich. Enzymatic reactions were conducted in black flat-bottom low volume polystyrene 384-well plates (Grenier) and 15 μL total volume. USP7 (2.5 nM, 5 μL) was incubated in assay buffer (50 mM HEPES (pH 7.2), 150 mM NaCl, 5 mM DTT, 0.05% BSA (w/v), 0.05% CHAPS) in the presence or absence of inhibitor (5 μL). Inhibitors were stored as 10 mM DMSO stocks in an inert environment (low humidity, dark, low oxygen, room temperature) using a Storage Pod System and serial dilutions were prepared in buffer just prior to the assay (from 200 to 0.003 μM, 11 dp curve). Following incubation at room temperature for 30 min, the enzymatic reactions were initiated by dispensing the Ub substrate (50 nM, 5 μL). FP was measured every 5 min over a period of 1.5 h (within the linear range of the assay) using a Pherastar FSX (BMG Labtech) exciting at 530 nm and measuring the amount of parallel and perpendicular light at 575 nm. The FP signal was subsequently normalised to the control without compound present. Data were plotted and fitted, and the concentrations resulting in 50% inhibition (IC50) were calculated using the non-linear regression curve fitting model using GraphPad Prism.

[1] = read-out: USP7 IC50 activity (Table 3a, classes)
[2] = unit not given in Table 3b (Table 1 and key of Table 3a use μM), read-out: USP7 IC50 activity (Table 3b)

Chain of USP7 (Q93009 whole entry): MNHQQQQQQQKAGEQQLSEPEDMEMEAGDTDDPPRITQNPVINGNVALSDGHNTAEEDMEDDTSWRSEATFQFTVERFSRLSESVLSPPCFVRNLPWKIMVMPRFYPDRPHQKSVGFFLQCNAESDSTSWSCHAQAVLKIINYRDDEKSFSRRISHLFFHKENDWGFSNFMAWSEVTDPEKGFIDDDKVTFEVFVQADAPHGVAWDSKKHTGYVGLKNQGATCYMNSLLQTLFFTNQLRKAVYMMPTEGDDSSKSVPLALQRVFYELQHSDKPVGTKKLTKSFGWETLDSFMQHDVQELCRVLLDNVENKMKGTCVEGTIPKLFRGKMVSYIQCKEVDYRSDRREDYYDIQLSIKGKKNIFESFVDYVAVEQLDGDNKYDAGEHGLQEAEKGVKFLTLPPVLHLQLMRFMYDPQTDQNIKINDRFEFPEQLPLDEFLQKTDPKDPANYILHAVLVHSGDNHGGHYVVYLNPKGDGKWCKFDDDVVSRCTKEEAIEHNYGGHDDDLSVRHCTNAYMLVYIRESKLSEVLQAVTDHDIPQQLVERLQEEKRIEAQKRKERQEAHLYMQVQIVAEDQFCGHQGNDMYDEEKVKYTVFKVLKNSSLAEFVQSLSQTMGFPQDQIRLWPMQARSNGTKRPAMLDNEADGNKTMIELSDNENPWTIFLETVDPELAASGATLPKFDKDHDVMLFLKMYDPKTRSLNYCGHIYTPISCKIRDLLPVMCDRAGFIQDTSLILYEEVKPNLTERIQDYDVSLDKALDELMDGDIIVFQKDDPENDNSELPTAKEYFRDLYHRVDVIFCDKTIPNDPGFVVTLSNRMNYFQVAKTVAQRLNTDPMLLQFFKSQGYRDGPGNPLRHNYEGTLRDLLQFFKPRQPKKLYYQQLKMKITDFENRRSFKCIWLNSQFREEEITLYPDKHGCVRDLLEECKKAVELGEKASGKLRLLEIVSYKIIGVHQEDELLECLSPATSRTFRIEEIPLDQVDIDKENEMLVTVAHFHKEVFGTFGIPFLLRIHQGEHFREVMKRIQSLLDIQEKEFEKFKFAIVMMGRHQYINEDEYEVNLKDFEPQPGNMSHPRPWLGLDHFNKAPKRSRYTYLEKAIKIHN

Row | Compound | IC50 [1] | IC50 [2]
1 | CC1(C)COCC(c2ccc(-n3c(Cl)cc4c(=O)n(CC5(O)CCN(C(=O)C6(C)CC6)CC5)cnc43)cc2)N1 (stereo not drawn) [Example 15, 6-Chloro-7-(4-(5,5-dimethylmorpholin-3-yl)phenyl)-3-((4-hydroxy-1-(1-methylcyclopropane-1-carbonyl)piperidin-4-yl)methyl)-3,7-dihydro-4H-pyrrolo[2,3-d]pyrimidin-4-one] | 0.1 to 0.25 µM | 0.169 µM
2 | CC1(C)COCC(c2ccc(-n3c(Cl)cc4c(=O)n(CC5(O)CCN(C(=O)c6ccc(Cl)cc6)CC5)cnc43)cc2)N1 (stereo not drawn) [Example 16, 6-Chloro-3-((1-(4-chlorobenzoyl)-4-hydroxypiperidin-4-yl)methyl)-7-(4-(5,5-dimethylmorpholin-3-yl)phenyl)-3,7-dihydro-4H-pyrrolo[2,3-d]pyrimidin-4-one] | 0.1 to 0.25 µM | 0.249 µM
3 | O=C(c1ccc(Cl)cc1)N1CCC(O)(Cn2cnc3c(cc(Cl)n3-c3ccc(C4COCC5(CC5)N4)cc3)c2=O)CC1 (stereo not drawn) [Example 18, 7-(4-(7-Oxa-4-azaspiro[2.5]octan-5-yl)phenyl)-6-chloro-3-((1-(4-chlorobenzoyl)-4-hydroxypiperidin-4-yl)methyl)-3,7-dihydro-4H-pyrrolo[2,3-d]pyrimidin-4-one] | 0.25 to 2 µM | 0.378 µM
4 | CC1(C(=O)N2CCC(O)(Cn3cnc4c(cc(Cl)n4-c4ccc(C5COCC6(CC6)N5)cc4)c3=O)CC2)CC1 (stereo not drawn) [Example 19, 7-(4-(7-Oxa-4-azaspiro[2.5]octan-5-yl)phenyl)-6-chloro-3-((4-hydroxy-1-(1-methylcyclopropane-1-carbonyl)piperidin-4-yl)methyl)-3,7-dihydro-4H-pyrrolo[2,3-d]pyrimidin-4-one] | 0.25 to 2 µM | 0.372 µM
5 | C[C@H]1CN[C@H](c2ccc(-n3c(Cl)cc4c(=O)n(CC5(O)CCN(C(=O)c6ccccc6)CC5)cnc43)cc2)CO1 [Example 20, 3-((1-Benzoyl-4-hydroxypiperidin-4-yl)methyl)-6-chloro-7-(4-((3R,6S)-6-methylmorpholin-3-yl)phenyl)-3,7-dihydro-4H-pyrrolo[2,3-d]pyrimidin-4-one] | 0.25 to 2 µM | 0.379 µM
6 | C[C@H]1CN[C@H](c2ccc(-n3c(Cl)cc4c(=O)n(CC5(O)CCN(C(=O)c6ccc(F)cc6F)CC5)cnc43)cc2)CO1 [Example 22, 6-Chloro-3-((1-(2,4-difluorobenzoyl)-4-hydroxypiperidin-4-yl)methyl)-7-(4-((3R,6S)-6-methylmorpholin-3-yl)phenyl)-3,7-dihydro-4H-pyrrolo[2,3-d]pyrimidin-4-one] | 0.1 to 0.25 µM | 0.222 µM
7 | C[C@@H]1CN[C@@H](c2ccc(-n3c(Cl)cc4c(=O)n(CC5(O)CCN(C(=O)c6ccccc6)CC5)cnc43)cc2)CO1 [Example 24, 3-((1-Benzoyl-4-hydroxypiperidin-4-yl)methyl)-6-chloro-7-(4-((3S,6R)-6-methylmorpholin-3-yl)phenyl)-3,7-dihydro-4H-pyrrolo[2,3-d]pyrimidin-4-one] | 0.1 to 0.25 µM | 0.25 µM
8 | C[C@@H]1CN[C@@H](c2ccc(-n3c(Cl)cc4c(=O)n(CC5(O)CCN(C(=O)c6ccc(F)cc6)CC5)cnc43)cc2)CO1 [Example 25, 6-Chloro-3-((1-(4-fluorobenzoyl)-4-hydroxypiperidin-4-yl)methyl)-7-(4-((3S,6R)-6-methylmorpholin-3-yl)phenyl)-3,7-dihydro-4H-pyrrolo[2,3-d]pyrimidin-4-one] | 0.1 to 0.25 µM | 0.147 µM
9 | C[C@H]1CN[C@H](c2ccc(-n3c(Cl)cc4c(=O)n(CC5(O)CCN(C(=O)c6ccc(Cl)cc6F)CC5)cnc43)cc2)CO1 [Example 30, 6-Chloro-3-((1-(4-chloro-2-fluorobenzoyl)-4-hydroxypiperidin-4-yl)methyl)-7-(4-((3R,6S)-6-methylmorpholin-3-yl)phenyl)-3,7-dihydro-4H-pyrrolo[2,3-d]pyrimidin-4-one] | 0.1 to 0.25 µM | 0.164 µM
10 | C[C@H]1CN[C@H](c2ccc(-n3c(Cl)cc4c(=O)n(CC5(O)CCN(C(=O)c6ccccc6Cl)CC5)cnc43)cc2)CO1 [Example 31, 6-Chloro-3-((1-(2-chlorobenzoyl)-4-hydroxypiperidin-4-yl)methyl)-7-(4-((3R,6S)-6-methylmorpholin-3-yl)phenyl)-3,7-dihydro-4H-pyrrolo[2,3-d]pyrimidin-4-one] | 0.1 to 0.25 µM | 0.144 µM
11 | C[C@H]1CN[C@H](c2ccc(-n3c(Cl)cc4c(=O)n(CC5(O)CCN(C(=O)c6cccc(Cl)c6)CC5)cnc43)cc2)CO1 [Example 35, 6-Chloro-3-((1-(3-chlorobenzoyl)-4-hydroxypiperidin-4-yl)methyl)-7-(4-((3R,6S)-6-methylmorpholin-3-yl)phenyl)-3,7-dihydro-4H-pyrrolo[2,3-d]pyrimidin-4-one] | 0.1 to 0.25 µM | 0.224 µM
12 | C[C@H]1CN[C@H](c2ccc(-n3c(Cl)cc4c(=O)n(CC5(O)CCN(C(=O)c6ccccc6F)CC5)cnc43)cc2)CO1 [Example 36, 6-Chloro-3-((1-(2-fluorobenzoyl)-4-hydroxypiperidin-4-yl)methyl)-7-(4-((3R,6S)-6-methylmorpholin-3-yl)phenyl)-3,7-dihydro-4H-pyrrolo[2,3-d]pyrimidin-4-one] | 0.25 to 2 µM | 0.511 µM
13 | C[C@H]1CN[C@H](c2ccc(-n3c(Cl)cc4c(=O)n(CC5(O)CCN(C(=O)c6ccc(F)c(F)c6)CC5)cnc43)cc2)CO1 [Example 37, 6-Chloro-3-((1-(3,4-difluorobenzoyl)-4-hydroxypiperidin-4-yl)methyl)-7-(4-((3R,6S)-6-methylmorpholin-3-yl)phenyl)-3,7-dihydro-4H-pyrrolo[2,3-d]pyrimidin-4-one] | 0.25 to 2 µM | 0.254 µM
14 | C[C@H]1CN[C@H](c2ccc(-n3c(Cl)cc4c(=O)n(CC5(O)CCN(C(=O)c6cccc(F)c6)CC5)cnc43)cc2)CO1 [Example 38, 6-Chloro-3-((1-(3-fluorobenzoyl)-4-hydroxypiperidin-4-yl)methyl)-7-(4-((3R,6S)-6-methylmorpholin-3-yl)phenyl)-3,7-dihydro-4H-pyrrolo[2,3-d]pyrimidin-4-one] | 0.25 to 2 µM | 0.302 µM
15 | C[C@H]1CN[C@H](c2ccc(-n3c(Cl)cc4c(=O)n(CC5(O)CCN(C(=O)c6cccc(F)c6F)CC5)cnc43)cc2)CO1 [Example 39, 6-Chloro-3-((1-(2,3-difluorobenzoyl)-4-hydroxypiperidin-4-yl)methyl)-7-(4-((3R,6S)-6-methylmorpholin-3-yl)phenyl)-3,7-dihydro-4H-pyrrolo[2,3-d]pyrimidin-4-one] | 0.25 to 2 µM | 1.15 µM
16 | C[C@H]1CN[C@H](c2ccc(-n3c(Cl)cc4c(=O)n(CC5(O)CCN(C(=O)C6(C7CC7)CC6)CC5)cnc43)cc2)CO1 [Example 42, 3-((1-([1,1′-Bi(cyclopropane)]-1-carbonyl)-4-hydroxypiperidin-4-yl)methyl)-6-chloro-7-(4-((3R,6S)-6-methylmorpholin-3-yl)phenyl)-3,7-dihydro-4H-pyrrolo[2,3-d]pyrimidin-4-one] | < 0.1 µM | 0.091 µM
17 | CC[C@H]1CN[C@H](c2ccc(-n3c(Cl)cc4c(=O)n(CC5(O)CCN(C(=O)c6ccc(F)cc6)CC5)cnc43)cc2)CO1 [Example 45, 6-Chloro-7-(4-((3R,6S)-6-ethylmorpholin-3-yl)phenyl)-3-((1-(4-fluorobenzoyl)-4-hydroxypiperidin-4-yl)methyl)-3,7-dihydro-4H-pyrrolo[2,3-d]pyrimidin-4-one] | 0.1 to 0.25 µM | 0.176 µM
18 | CC[C@H]1CN[C@H](c2ccc(-n3c(Cl)cc4c(=O)n(CC5(O)CCN(C(=O)c6ccc(Cl)cc6)CC5)cnc43)cc2)CO1 [Example 46, 6-Chloro-3-((1-(4-chlorobenzoyl)-4-hydroxypiperidin-4-yl)methyl)-7-(4-((3R,6S)-6-ethylmorpholin-3-yl)phenyl)-3,7-dihydro-4H-pyrrolo[2,3-d]pyrimidin-4-one] | 0.1 to 0.25 µM | 0.162 µM
19 | Cc1cc(-n2c(Cl)cc3c(=O)n(CC4(O)CCN(C(=O)c5ccc(F)cc5)CC4)cnc32)ccc1[C@H]1CO[C@H](C)CN1 [Example 47, 6-Chloro-3-((1-(4-fluorobenzoyl)-4-hydroxypiperidin-4-yl)methyl)-7-(3-methyl-4-((3S,6R)-6-methylmorpholin-3-yl)phenyl)-3,7-dihydro-4H-pyrrolo[2,3-d]pyrimidin-4-one] | < 0.1 µM | 0.091 µM
20 | O=C(N1CCC(O)(Cn2cnc3c(cc(Cl)n3-c3ccc([C@@H]4NC[C@@H]5CC[C@H]4O5)cc3)c2=O)CC1)C1(C2CC2)CC1 [Example 49, 7-(4-((1R,2S,5S)-8-Oxa-3-azabicyclo[3.2.1]octan-2-yl)phenyl)-3-((1-([1,1′-bi(cyclopropane)]-1-carbonyl)-4-hydroxypiperidin-4-yl)methyl)-6-chloro-3,7-dihydro-4H-pyrrolo[2,3-d]pyrimidin-4-one] | 0.1 to 0.25 µM | 0.223 µM
21 | Cc1cc(-n2c(Cl)cc3c(=O)n(CC4(O)CCN(C(=O)c5ccc(Cl)cc5F)CC4)cnc32)ccc1[C@H]1CO[C@H](C)CN1 [Example 50, 6-Chloro-3-((1-(4-chloro-2-fluorobenzoyl)-4-hydroxypiperidin-4-yl)methyl)-7-(3-methyl-4-((3S,6R)-6-methylmorpholin-3-yl)phenyl)-3,7-dihydro-4H-pyrrolo[2,3-d]pyrimidin-4-one] | 0.1 to 0.25 µM | 0.164 µM

— US20250122223A1, “HETEROCYCLIC COMPOUNDS AS UBIQUITIN SPECIFIC PROTEASE 7 INHIBITORS” (ALMAC DISCOVERY LIMITED, priority 2022, published 2025)
